PubChem BioAssay AID256 (DTP/NCI, 2004)
Values joined by “and” are separate entries in the source; they are usually repeats but may differ in a detail not shown here. Equal values may be shown once. Toxic doses and inconclusive results are not listed.

Test system: CD2F1 mice, L1210 leukemia ip, survival T/C
Experiment: NCI In Vivo Anticancer Drug Screen. Data for tumor model L1210 Leukemia (intraperitoneal) in CD2F1 (CDF1) mice
Details: higher = longer survival
Summary of the method: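 Antitumor effect is scored in animals hosting a serially transplanted tumor. Values compare compound-dosed animals against vehicle-only controls as a simple quotient.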

[1] = endpoint: mean survival time, dose: 100.0 mg/kg/injection, schedule: Q04DX003 (ip), vehicle: saline with Tween-80
[2] = endpoint: mean survival time, dose: 200.0 mg/kg/injection, schedule: Q04DX003 (ip), vehicle: saline with Tween-80
[3] = endpoint: mean survival time, dose: 50.0 mg/kg/injection, schedule: Q01DX009 (ip), vehicle: saline with Tween-80
[4] = endpoint: mean survival time, dose: 100.0 mg/kg/injection, schedule: Q01DX009 (ip), vehicle: saline with Tween-80
[5] = endpoint: mean survival time, dose: 100.0 mg/kg/injection, schedule: Q01DX001 (ip), vehicle: saline with Tween-80
[6] = endpoint: mean survival time, dose: 100.0 mg/kg/injection, schedule: Q04DX003 (ip), vehicle: saline
[7] = endpoint: mean survival time, dose: 200.0 mg/kg/injection, schedule: Q04DX003 (ip), vehicle: saline
[8] = endpoint: mean survival time, dose: 400.0 mg/kg/injection, schedule: Q04DX003 (ip), vehicle: saline
[9] = endpoint: mean survival time, dose: 200.0 mg/kg/injection, schedule: Q01DX001 (ip), vehicle: saline with Tween-80
[10] = endpoint: mean survival time, dose: 400.0 mg/kg/injection, schedule: Q01DX001 (ip), vehicle: saline with Tween-80
[11] = endpoint: mean survival time, dose: 200.0 mg/kg/injection, schedule: Q01DX009 (ip), vehicle: saline with Tween-80
[12] = endpoint: mean survival time, dose: 400.0 mg/kg/injection, schedule: Q04DX003 (ip), vehicle: saline with Tween-80
[13] = endpoint: mean survival time, dose: 100.0 mg/kg/injection, schedule: Q04DX002 (ip), vehicle: saline with Tween-80
[14] = endpoint: mean survival time, dose: 400.0 mg/kg/injection, schedule: Q04DX002 (ip), vehicle: saline with Tween-80
[15] = endpoint: mean survival time, dose: 400.0 mg/kg/injection, schedule: Q01DX009 (ip), vehicle: saline with Tween-80

`CON(C)C(=O)N1c2ccccc2Sc2ccccc21` was tested, and the T/C [1] was 87 % of control and the T/C [2] was 87 % of control.
With `CC1=C/C(=C/c2ccccc2)CC(C)(C)C1` (tested in a mixture with another compound) the T/C (endpoint: mean survival time, dose: 25.0 mg/kg/injection, schedule: Q01DX009 (ip), vehicle: saline with Tween-80) was 105 % of control, the T/C [3] was 103 % of control and the T/C [4] was 95 % of control. For the same molecule, the T/C [1] was 100 % of control.
For `O=S(=O)(O)C(Nc1ccccn1)c1ccccc1` (stereo not drawn), the T/C (endpoint: mean survival time, dose: 25.0 mg/kg/injection, schedule: Q01DX001 (ip), vehicle: saline with Tween-80) was 98 % of control, the T/C (endpoint: mean survival time, dose: 50.0 mg/kg/injection, schedule: Q01DX001 (ip), vehicle: saline with Tween-80) was 106 % of control and the T/C [5] was 106 % of control.
In the case of `CC(C)NC(=O)CCn1c(=O)c2ccccc2c(=O)n1C`, the T/C (endpoint: mean survival time, dose: 25.0 mg/kg/injection, schedule: Q04DX003 (ip), vehicle: saline) is reported as 98 % of control, the T/C (endpoint: mean survival time, dose: 50.0 mg/kg/injection, schedule: Q04DX003 (ip), vehicle: saline) is reported as 98 % of control and the T/C [6] is reported as 96 % of control. For the same molecule, the T/C [7] was 106 % of control and the T/C [8] was 101 % of control.
`CC(=O)OCCCOC(C)=O` was tested, and the T/C [5] was 93 % of control, the T/C [9] was 112 % of control and the T/C [10] was 101 % of control.
`COc1cc(/C=N/NC(=O)CNC(=O)NCc2ccco2)ccc1O` was tested, and the T/C [3] was 92 % of control, the T/C [4] was 92 % of control and the T/C [11] was 92 % of control.
With `CC(=O)N1CCc2cc(N)ccc21` the T/C [1] was 93 % of control, the T/C [2] was 95 % of control and the T/C [12] was 97 % of control.
`O=P1(CCBr)NCCCO1` (stereo not drawn) was tested, and the T/C (endpoint: mean survival time, dose: 62.5 mg/kg/injection, schedule: Q01DX001 (ip), vehicle: water) was 100 % of control, the T/C (endpoint: mean survival time, dose: 125.0 mg/kg/injection, schedule: Q01DX001 (ip), vehicle: water) was 97 % of control and the T/C (endpoint: mean survival time, dose: 250.0 mg/kg/injection, schedule: Q01DX001 (ip), vehicle: water) was 94 % of control. The T/C (endpoint: mean survival time, dose: 500.0 mg/kg/injection, schedule: Q01DX001 (ip), vehicle: water) was 97 % of control and the T/C (endpoint: mean survival time, dose: 750.0 mg/kg/injection, schedule: Q01DX001 (ip), vehicle: water) was 102 % of control.
`ON(C(=Nc1ccc(Cl)cc1)c1ccccc1)c1ccccc1` was tested, and the T/C (endpoint: mean survival time, dose: 100.0 mg/kg/injection, schedule: Q01DX001 (ip), vehicle: saline) was 105 % of control, the T/C [6] was 100 % of control and the T/C (endpoint: mean survival time, dose: 200.0 mg/kg/injection, schedule: Q01DX001 (ip), vehicle: saline) was 97 % of control. For the same molecule, the T/C [7] was 102 % of control, the T/C (endpoint: mean survival time, dose: 400.0 mg/kg/injection, schedule: Q01DX001 (ip), vehicle: saline) was 100 % of control and the T/C [8] was 100 % of control.
`CCOC(=O)C([NH-])C([NH-])C(=O)OCC.[Cl][Pt+2][Cl]` (stereo not drawn) was tested, and the T/C (endpoint: mean survival time, dose: 12.5 mg/kg/injection, schedule: Q04DX003 (ip), vehicle: saline with Tween-80) was 186 % of control and the T/C (endpoint: mean survival time, dose: 25.0 mg/kg/injection, schedule: Q04DX003 (ip), vehicle: saline with Tween-80) was 195 % of control.
With `O=[N+]([O-])O.[Ga]` the T/C (endpoint: mean survival time, dose: 50.0 mg/kg/injection, schedule: Q01DX Z (ip), vehicle: saline) was 119 % of control.
`SCc1ccccc1` was tested, and the T/C [5] was 110 % of control, the T/C [9] was 98 % of control and the T/C [10] was 105 % of control.
`CC(C)(C#N)N1CCCCC1` was tested, and the T/C (endpoint: mean survival time, dose: 1.25 mg/kg/injection, schedule: Q01DX009 (ip), vehicle: saline with Tween-80) was 107 % of control, the T/C (endpoint: mean survival time, dose: 2.5 mg/kg/injection, schedule: Q01DX009 (ip), vehicle: saline with Tween-80) was 104 % of control and the T/C (endpoint: mean survival time, dose: 5.0 mg/kg/injection, schedule: Q01DX009 (ip), vehicle: saline with Tween-80) was 98 % of control. For the same molecule, the T/C (endpoint: mean survival time, dose: 5.0 mg/kg/injection, schedule: Q04DX003 (ip), vehicle: saline) was 101 % of control.
For `CCOC(=O)c1c[nH]c2ccc3c(nc(C)n3C)c2c1=O`, the T/C (endpoint: median survival time, dose: 25.0 mg/kg/injection, schedule: Q01DX005 (ip), vehicle: Klucel (hydroxypropylcellulose) (HPC)) was 98 % of control, the T/C (endpoint: median survival time, dose: 50.0 mg/kg/injection, schedule: Q01DX005 (ip), vehicle: Klucel (hydroxypropylcellulose) (HPC)) was 100 % of control and the T/C (endpoint: median survival time, dose: 100.0 mg/kg/injection, schedule: Q01DX005 (ip), vehicle: Klucel (hydroxypropylcellulose) (HPC)) was 108 % of control. The T/C (endpoint: median survival time, dose: 200.0 mg/kg/injection, schedule: Q01DX005 (ip), vehicle: Klucel (hydroxypropylcellulose) (HPC)) was 112 % of control.
`[Cl][Pt+2][Cl].[NH-]c1ccccc1C(F)(F)F.[NH-]c1ccccc1C(F)(F)F` was tested, and the T/C (endpoint: mean survival time, dose: 12.5 mg/kg/injection, schedule: Q04DX003 (ip), vehicle: distilled water + Tween-80) was 97 % of control, the T/C (endpoint: mean survival time, dose: 25.0 mg/kg/injection, schedule: Q04DX003 (ip), vehicle: distilled water + Tween-80) was 97 % of control and the T/C (endpoint: mean survival time, dose: 50.0 mg/kg/injection, schedule: Q04DX003 (ip), vehicle: distilled water + Tween-80) was 106 % of control. The T/C (endpoint: mean survival time, dose: 100.0 mg/kg/injection, schedule: Q04DX003 (ip), vehicle: distilled water + Tween-80) was 114 % of control.
`O=C(Nc1ccccn1)OCc1ccccc1` was tested, and the T/C [13] was 112 % of control, the T/C (endpoint: mean survival time, dose: 200.0 mg/kg/injection, schedule: Q04DX002 (ip), vehicle: saline with Tween-80) was 101 % of control and the T/C [14] was 97 % of control.
For `O=C(O)C1C2OC(C(Br)C2Br)C1C(=O)O` (stereo not drawn), the T/C (endpoint: mean survival time, dose: 50.0 mg/kg/injection, schedule: Q01DX009 (ip), vehicle: saline) was 102 % of control and the T/C (endpoint: mean survival time, dose: 100.0 mg/kg/injection, schedule: Q01DX009 (ip), vehicle: saline) was 104 % of control.
`N=C(OC1CCCCC1)C(Cl)(Cl)Cl` was tested, and the T/C [3] was 92 % of control and the T/C [4] was 88 % of control.
`CCN(CC)c1ccc(N=Nc2cc(Cl)ccc2Cl)c(NC(=O)CSC(C)=O)c1` was tested, and the T/C (endpoint: mean survival time, dose: 100.0 mg/kg/injection, schedule: Q04DX003 (ip), vehicle: other) was 94 % of control, the T/C (endpoint: mean survival time, dose: 200.0 mg/kg/injection, schedule: Q04DX003 (ip), vehicle: other) was 100 % of control and the T/C (endpoint: mean survival time, dose: 400.0 mg/kg/injection, schedule: Q04DX003 (ip), vehicle: other) was 97 % of control.
In the case of `O=C(/C=C/c1ccncc1)c1ccccc1`, the T/C [4] is reported as 92 % of control, the T/C [1] is reported as 89 % of control and the T/C [11] is reported as 89 % of control. The T/C [2] was 89 % of control, the T/C [15] was 91 % of control and the T/C [12] was 95 % of control.
With `CC(CO)CCC(=O)C(C)C1C2(CC3C4CCC5CC(O)CCC5(C)C4CCC31C)SCCS2` (stereo not drawn) the T/C [13] was 86 % of control and the T/C [14] was 92 % of control.
With `O=P1(O)Cc2ccccc2-c2ccccc21` the T/C [4] was 100 % of control, the T/C [11] was 110 % of control and the T/C [15] was 98 % of control.
In the case of `COC(=O)C1OC(Sc2ncnc3nc[nH]c23)C(O)C(O)C1O` (stereo not drawn), the T/C (endpoint: median survival time, dose: 25.0 mg/kg/injection, schedule: Q01DX005 (ip), vehicle: water) is reported as 98 % of control, the T/C (endpoint: median survival time, dose: 50.0 mg/kg/injection, schedule: Q01DX005 (ip), vehicle: water) is reported as 109 % of control and the T/C (endpoint: median survival time, dose: 100.0 mg/kg/injection, schedule: Q01DX005 (ip), vehicle: water) is reported as 109 % of control. For the same molecule, the T/C (endpoint: median survival time, dose: 200.0 mg/kg/injection, schedule: Q01DX005 (ip), vehicle: water) was 113 % of control and 118 % of control and the T/C (endpoint: median survival time, dose: 400.0 mg/kg/injection, schedule: Q01DX005 (ip), vehicle: water) was 119 % of control.
`O=C(CN1CC1)NCCCCCCCCCNC(=O)CN1CC1` was tested, and the T/C (endpoint: mean survival time, dose: 22.0 mg/kg/injection, schedule: Q01DX001 (ip), vehicle: carboxymethylcellulose (CMC)) was 113 % of control and the T/C (endpoint: mean survival time, dose: 33.0 mg/kg/injection, schedule: Q01DX001 (ip), vehicle: carboxymethylcellulose (CMC)) was 117 % of control.
With `COc1nc(NC2OC(CO)C(O)C(O)C2O)cc(=O)n1C` (stereo not drawn) the T/C (endpoint: median survival time, dose: 12.5 mg/kg/injection, schedule: Q01DX005 (ip), vehicle: saline) was 98 % of control, the T/C (endpoint: median survival time, dose: 25.0 mg/kg/injection, schedule: Q01DX005 (ip), vehicle: saline) was 98 % of control and the T/C (endpoint: median survival time, dose: 50.0 mg/kg/injection, schedule: Q01DX005 (ip), vehicle: saline) was 100 % of control. The T/C (endpoint: median survival time, dose: 100.0 mg/kg/injection, schedule: Q01DX005 (ip), vehicle: saline) was 102 % of control and the T/C (endpoint: median survival time, dose: 200.0 mg/kg/injection, schedule: Q01DX005 (ip), vehicle: saline) was 102 % of control.
With `O=c1oc(-c2ccc([N+](=O)[O-])cc2)nc2cc(Cl)ccc12` the T/C [3] was 97 % of control, the T/C [4] was 108 % of control and the T/C [11] was 103 % of control.
